Experimental findings from patent US6903096B2, “Quinazoline derivatives as medicaments” (Scios, Inc., priority 1998, dated 2005) are described below.

Series [1] addresses T1, p38-γ (Homo sapiens, UniProt P53778).
T1 sequence (P53778 1-367): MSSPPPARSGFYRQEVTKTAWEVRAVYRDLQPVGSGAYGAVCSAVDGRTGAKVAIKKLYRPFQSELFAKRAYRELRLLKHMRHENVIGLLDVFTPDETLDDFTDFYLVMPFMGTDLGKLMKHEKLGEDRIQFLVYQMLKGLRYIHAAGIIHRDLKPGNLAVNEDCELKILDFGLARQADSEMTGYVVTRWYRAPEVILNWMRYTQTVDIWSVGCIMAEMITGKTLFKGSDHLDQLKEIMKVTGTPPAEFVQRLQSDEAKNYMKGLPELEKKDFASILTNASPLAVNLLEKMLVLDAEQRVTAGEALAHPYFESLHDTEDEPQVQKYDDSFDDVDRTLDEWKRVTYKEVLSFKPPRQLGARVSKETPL
The experiment in a line: Kinase specificity: p38-γ. It is filed as biochemical. To be noted: tested at 50 μM; approximate IC50(app)=A×i/(1−A). On the procedure: (§1) IC50 values were determined with curve-fitting plots available with common softeware packages. Approximate IC50 values were calculated using formula IC50(app)=A×i/(1−A) where A=fractional activity and i=total inhibitor concentration.
(§2) Compounds 5 and 7 were tested for their specificity for p38 by assessing their ability to inhibit other kinases. These compounds were tested at 50 μM and were soluble at 250 μM in 5% DMSO/95% water.

Series [2] deals with JNK1 (Homo sapiens, UniProt P45983). As to the kind of experiment: Kinase specificity: JNK1. It is filed as biochemical. To be noted: tested at 50 μM; approximate IC50(app)=A×i/(1−A). The method, then: as §1, §2
Series [3] deals with PKA (Homo sapiens, UniProt P17612). The experiment in a line: Kinase specificity: PKA. It is filed as biochemical. The settings on record: tested at 50 μM; approximate IC50(app)=A×i/(1−A). On the procedure: as §1, §2
The target in series [4] is PKC. As to the kind of experiment: Kinase specificity: PKC. The settings on record: tested at 50 μM; approximate IC50(app)=A×i/(1−A). Format: biochemical. On the procedure: as §1, §2
Series [5] deals with DNA-dep PK (PKD) (Homo sapiens, UniProt P78527). The experiment in a line: Kinase specificity: DNA-dep PK. It is filed as biochemical. The settings on record: tested at 50 μM; approximate IC50(app)=A×i/(1−A). The method, then:
as §1, §2

Series [6] deals with cck2. As to the kind of experiment: Kinase specificity: cck2. It is filed as biochemical. The settings on record: tested at 50 μM; approximate IC50(app)=A×i/(1−A). On the procedure: as §1, §2
Series [7] concerns the target EGF-R (Homo sapiens, UniProt P00533). The experiment in a line: Kinase specificity: EGF-R. Format: biochemical. The settings on record: tested at 50 μM; approximate IC50(app)=A×i/(1−A). On the procedure: as §1, §2
In series [8] the target is p38-β (Homo sapiens, UniProt Q15759). As to the kind of experiment: p38-β inhibition. The settings on record: curve fitted. Format: biochemical. On the procedure: as §1
Series [9] is described as follows: Solubility in 5% DMSO/95% water. It is filed as physicochemical. The settings on record: aqueous with cosolvent or surfactant or cyclodextrin, read-out: soluble at. On the procedure:
as §2

Chain of p38-β (Q15759 whole entry): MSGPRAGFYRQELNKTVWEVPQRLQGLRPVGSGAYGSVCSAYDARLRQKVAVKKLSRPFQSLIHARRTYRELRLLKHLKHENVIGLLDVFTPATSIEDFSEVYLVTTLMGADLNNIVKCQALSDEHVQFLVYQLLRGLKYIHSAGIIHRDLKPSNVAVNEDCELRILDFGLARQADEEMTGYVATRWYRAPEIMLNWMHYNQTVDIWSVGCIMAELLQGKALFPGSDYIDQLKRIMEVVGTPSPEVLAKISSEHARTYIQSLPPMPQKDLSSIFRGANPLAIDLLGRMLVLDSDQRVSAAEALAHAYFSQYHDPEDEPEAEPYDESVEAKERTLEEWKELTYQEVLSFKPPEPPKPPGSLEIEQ
Chain of EGF-R (P00533 25-1210, species assumed): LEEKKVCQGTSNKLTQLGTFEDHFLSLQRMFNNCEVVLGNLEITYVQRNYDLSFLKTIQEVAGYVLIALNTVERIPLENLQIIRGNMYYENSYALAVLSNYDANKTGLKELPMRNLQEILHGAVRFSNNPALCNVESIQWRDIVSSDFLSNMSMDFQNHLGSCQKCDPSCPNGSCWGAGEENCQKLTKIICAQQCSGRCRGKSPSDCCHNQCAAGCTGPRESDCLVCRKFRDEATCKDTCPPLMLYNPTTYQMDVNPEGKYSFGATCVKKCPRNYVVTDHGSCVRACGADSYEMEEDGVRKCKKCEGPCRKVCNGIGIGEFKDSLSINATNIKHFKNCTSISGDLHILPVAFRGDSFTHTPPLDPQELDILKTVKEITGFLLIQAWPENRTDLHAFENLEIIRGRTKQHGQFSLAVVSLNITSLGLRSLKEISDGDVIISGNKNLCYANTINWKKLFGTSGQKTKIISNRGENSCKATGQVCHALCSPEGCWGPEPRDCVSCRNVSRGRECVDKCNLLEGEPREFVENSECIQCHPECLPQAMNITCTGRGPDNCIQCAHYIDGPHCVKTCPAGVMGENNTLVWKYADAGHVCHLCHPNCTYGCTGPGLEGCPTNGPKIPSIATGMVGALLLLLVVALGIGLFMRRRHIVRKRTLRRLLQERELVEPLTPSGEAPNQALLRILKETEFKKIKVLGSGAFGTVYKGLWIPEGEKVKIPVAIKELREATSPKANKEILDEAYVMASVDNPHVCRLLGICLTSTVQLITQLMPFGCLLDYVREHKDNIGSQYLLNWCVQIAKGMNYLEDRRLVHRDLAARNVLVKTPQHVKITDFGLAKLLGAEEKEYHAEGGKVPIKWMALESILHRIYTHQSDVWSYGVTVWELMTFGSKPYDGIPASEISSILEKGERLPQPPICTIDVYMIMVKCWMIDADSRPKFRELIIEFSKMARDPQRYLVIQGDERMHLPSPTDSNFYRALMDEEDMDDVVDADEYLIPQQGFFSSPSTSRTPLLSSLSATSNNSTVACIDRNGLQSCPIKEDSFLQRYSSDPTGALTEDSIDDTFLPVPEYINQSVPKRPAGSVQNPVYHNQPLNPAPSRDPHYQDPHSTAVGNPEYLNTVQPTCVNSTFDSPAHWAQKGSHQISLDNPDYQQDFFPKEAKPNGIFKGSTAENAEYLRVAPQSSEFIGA
Chain of JNK1 (P45983 whole entry, species assumed): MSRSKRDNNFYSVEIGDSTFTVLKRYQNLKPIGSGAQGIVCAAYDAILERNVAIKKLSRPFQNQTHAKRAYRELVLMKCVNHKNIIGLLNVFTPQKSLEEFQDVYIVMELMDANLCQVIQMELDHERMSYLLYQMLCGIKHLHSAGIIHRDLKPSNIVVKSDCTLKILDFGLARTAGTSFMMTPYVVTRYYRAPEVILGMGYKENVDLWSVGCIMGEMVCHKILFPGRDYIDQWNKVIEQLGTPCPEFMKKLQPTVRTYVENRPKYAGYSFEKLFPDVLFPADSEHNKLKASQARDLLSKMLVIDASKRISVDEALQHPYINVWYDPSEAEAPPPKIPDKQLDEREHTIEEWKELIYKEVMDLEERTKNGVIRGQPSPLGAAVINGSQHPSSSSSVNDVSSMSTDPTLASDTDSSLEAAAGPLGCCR

For `Fc1ccccc1-c1nc(Nc2ccncc2)c2ccccc2n1` [Compound 5, 2-(2-fluorophenyl)-4-(4-pyridylamino)-quinazoline], the concentration for half-maximal inhibition (IC50) (commonly the concentration at which inhibition is half-maximal) in [1] was 227 µM; in series [2] it was 167 µM; in series [3] it was above 250 µM; in [4], above 100 µM; in series [5] it was 120 µM; in [6] it was 245 µM. For the same molecule, the IC50 worked out at 4.2 µM in series [7] and 0.928 µM in [8]. Besides, in series [9], the solubility is at least 250 µM.
With `c1ccc(-c2nc(Nc3ccncc3)c3ccccc3n2)cc1` [Compound 7, 2-phenyl-4-(4-pyridylamino)-quinazoline], the IC50 in series [1] was above 300 µM; in series [2], above 300 µM; in series [3], 310 µM; in series [4] it was above 500 µM; in [5], 240 µM; in series [6], above 500 µM. The IC50 in [7] worked out at 34 µM; in [8], 3.65 µM. In addition, the solubility in series [9] is at least 250 µM.
